From patent US20130018193A1, “DEUTERATED PIRFENIDONE” (CONCERT Pharmaceuticals Inc., priority 2007, published 2013)

What was measured:
[1] = Pharmacokinetics of Compound 106 after intravenous and oral dosing in rats; assay type: in vivo, Male Sprague-Dawley rats; conditions: for half-life / AUC(0-inf): male, Sprague-Dawley, rat, plasma; for half-life: 8 mg/kg co-dosed with pirfenidone; for AUC(0-inf): 8 mg/kg co-dosed
Description: Male Sprague-Dawley rats (3 for each route of administration) were administered a combination of 8 mg/kg of Compound 106 and 8 mg/kg of pirfenidone in 10% DMI (dimethyl isosorbide), 15% ethanol, 35% PG in distilled water by either oral or intravenous dosing. Blood samples from the dosed rats were collected prior to dosing and at 15, 30, 45, 60, 75, 90, 120, 240, and 360 minutes post-dosing. Plasma was isolated and prepared for analysis by mixing 0.1 ml of plasma in an Eppendorf tube with 20 μL methanol and 500 μL of quetiapine (50 ng/ml as an internal standard), vortexing for 1 minute and then centrifuging at 15,000 rpm for 5 minutes to remove any cellular debris. Plasma samples were analyzed by LC-MS/MS.
LC was performed using an Agilent (Agilent Technologies Inc. USA) liquid chromatograph equipped with an isocratic pump (1100 series), an autosampler (1100 series) and a degasser (1100 series). Plasma samples (2 μL) were run at 25° C. on a Phenomenex Gemini, C18, 5 μm, (50 mm×2.0 mm) column using 0.1% formic acid:methanol (30:70) as the mobile phase with an elution rate of 300 μL/min.
Mass spectrometric analysis was performed on plasma samples (2 μL) prepared as set forth above using an API3000 (triple-quadrupole) instrument from AB Inc (Canada) with an ESI interface. The data acquisition and control system were created using Analyst 1.4 software from ABI Inc.

[2] = Pharmacokinetics of Compounds 106 and 108 after intravenous and oral dosing in chimpanzees; assay type: in vivo; conditions: chimps; for AUC(0-inf) / clearance / half-life / Cmax: both sexes, plasma, 100 mg each co-dosed; for half-life: 30 minute infusion
Description: Chimpanzees (one male and one female for each route of administration) were administered a combination of 100 mg of Compound 106, 100 mg of Compound 108 and 100 mg of pirfenidone in 10% DMI (dimethyl isosorbide), 15% ethanol, 35% PG in distilled water (total volume 150 ml) by either oral or intravenous dosing. Intravenous dosing was performed by infusion over a 30 minute period. Blood samples from the orally dosed chimps were collected just prior to dosing and at 15, 30, 60, 90, 120, 240, 360, 480, 600, 720 and 1440 minutes post-dosing. Blood samples (4.5 ml) from the intravenously dosed chimps were collected just prior to infusion, at 15 and 29.5 minutes after the start of infusion, and then at 6, 15, 30, 45, 60, 120, 240, 360, 480, 600, 720 and 1440 minutes post-infusion. Plasma was isolated and prepared for analysis by mixing 0.1 ml of plasma with 300 μL of indiplon in (50 ng/ml in acetonitrile/water; 90/10; v/v) as an internal standard, vortexing and then centrifuging to remove any precipitated protein.
Plasma samples (10 μl) were injected to a Zorbax SB-C8 (Rapid Resolution) column (2.1×30 mm, 3.5 μm). The initial mobile phase condition was 100% A (water with 0.1% formic acid) and 0% B (acetonitrile with 0.1% formic acid) with a flow rate at 0.75 mL/min. Mobile phase B was allowed to reach 100% in 0.75 minutes and held for 1.0 minute before ramping back to 0% in another 0.1 minute. The overall run time was 3 minutes. The precursor/product ion pairs were set at m/z 186/92, m/z 191/97, m/z 189/95 and m/z 377/293 for detecting pirfenidone, Compound 106, Compound 108 and indiplon, respectively. Plasma concentration data for each compound in each animal was individually fitted to a 2-compartment model using WinNonLin version 5.2 (PK Model #9) with weighting of 1/y.

[3] = Pharmacokinetics of Compound 108 and 109 after intravenous and oral dosing in rats; assay type: in vivo, Male Sprague-Dawley rats; conditions: 8 mg/kg co-dosed with 8 mg/kg pirfenidone; for % Change compared to Pirfenidone, AUC0-∞ / % Change compared to Pirfenidone, Clearance / % Change compared to Pirfenidone, Half-life: IV dosing; for % Change compared to Pirfenidone, Cmax: oral dosing

Row | SMILES | half-life ([1]; IV dosing) [h] | AUC(0-inf) ([1]; IV dosing) [ng·h/mL] | AUC(0-inf) ([1]; oral dosing) [ng·h/mL] | AUC(0-inf) ([2]; IV dosing (Avg)) [ng·h/mL] | clearance ([2]; IV dosing (Avg)) [mL/min/kg] | half-life ([2]; IV dosing (Avg)) [h] | AUC(0-inf) ([2]; oral dosing (Avg)) [ng·h/mL] | Cmax ([2]; oral dosing (Avg)) [ng/mL] | increase in AUC as compared to pirfenidone ([1]; intravenous administration) [%] | increase in half-life as compared to pirfenidone ([1]; intravenous administration) [%] | increase in AUC as compared to pirfenidone ([1]; oral dosing) [%] | increase in AUC as compared to pirfenidone ([2]; intravenous administration) [%] | increase in half-life as compared to pirfenidone ([2]; intravenous administration) | increase in AUC as compared to pirfenidone ([2]; oral dosing) | increase in Cmax as compared to pirfenidone ([2]; oral dosing) | % Change compared to Pirfenidone, AUC0-∞ [3] | % Change compared to Pirfenidone, Clearance [3] [%] | % Change compared to Pirfenidone, Half-life [3] | % Change compared to Pirfenidone, Cmax [3]
1 | Cc1ccc(=O)n(-c2ccccc2)c1 [Pirfenidone, 5-methyl-1-phenylpyridin-2(1H)-one] | 0.74 | 11600 | 7910 | 4800 | 6.57 | 1.2 | 830 | 230 |  |  |  |  |  |  |  |  |  |  | 
2 | [2H]c1cc(C([2H])([2H])[2H])c([2H])n(-c2ccccc2)c1=O [Compound 106, 3,6-Dideutero-5-(methyl-d3)-1-phenylpyridin-2(1H)-one] | 1.2 | 20100 | 13800 | 6900 | 4.37 | 1.4 | 1260 | 340 | 72 | 62 | 75 | ~50 | greater than 10% | greater than 50% | greater than 50% |  |  |  | 
3 | [2H]C([2H])([2H])c1ccc(=O)n(-c2ccccc2)c1 [Compound 108, 5-(Methyl-d3)-1-phenylpyridin-2(1H)-one] |  |  |  | 7000 | 4.58 | 1.5 | 1350 | 360 |  |  |  | ~50 | greater than 20% | ~60% | ~60% | +42% | −29 | +37% | +31%
4 | [2H]c1c([2H])c([2H])c(-n2cc(C([2H])([2H])[2H])ccc2=O)c([2H])c1[2H] [Compound 109] |  |  |  |  |  |  |  |  |  |  |  |  |  |  |  | +29% | −23 | +41% | +19%
